Assay results from ChEMBL document CHEMBL1201861, “Genomics of Drug Sensitity in Cancer screening data, Wellcome Trust Sanger Institute”.

Columns and labels:
Caov-3 cell line = experiment: cells; assay type: functional, cell-based; settings: Homo sapiens;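 further: cell growth inhibition read out by a viability assay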
Description: SANGER: Inhibition of human Caov-3 cell growth in a cell viability assay.

HMV-2 cell line = experiment: cells; assay type: functional, cell-based, Homo sapiens; settings: Homo sapiens, HMV-2;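 further: growth inhibition of HMV-II cells, read out with a cell viability assay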
Description: SANGER: Inhibition of human HMV-II cell growth in a cell viability assay.

KU812 cell line = experiment: cells; assay type: functional, cell-based; settings: Homo sapiens;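 further: growth inhibition of KU812 cells, read out with a cell viability assay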
Description: SANGER: Inhibition of human KU812 cell growth in a cell viability assay.

KYSE-150 cell line = experiment: cells; assay type: functional, cell-based, Homo sapiens; settings: Homo sapiens, KYSE-150;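 further: growth inhibition of human KYSE-150 cells, read out with a cell viability assay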
Description: SANGER: Inhibition of human KYSE-150 cell growth in a cell viability assay.

KYSE-520 cell line = experiment: cells; assay type: functional, cell-based, Homo sapiens; settings: Homo sapiens, KYSE-520;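 further: growth inhibition of human KYSE-520 cells, read out with a viability assay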
Description: SANGER: Inhibition of human KYSE-520 cell growth in a cell viability assay.

KYSE-70 cell line = experiment: cells; assay type: functional, cell-based, Homo sapiens; settings: Homo sapiens, KYSE-70;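 further: cell viability assay read-out, with IC50 expressing suppression of KYSE-70 cell growth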
Description: SANGER: Inhibition of human KYSE-70 cell growth in a cell viability assay.

LCLC-103H cell line = experiment: cells; assay type: functional, cell-based, Homo sapiens; settings: Homo sapiens, LCLC-103H
Description: SANGER: Inhibition of human LCLC-103H cell growth in a cell viability assay.

LXF-289 cell line = experiment: cells; assay type: functional, cell-based, Homo sapiens; settings: Homo sapiens, LXF-289
Description: SANGER: Inhibition of human LXF-289 cell growth in a cell viability assay.

A253 cell line = experiment: cells; assay type: functional, cell-based, Homo sapiens; settings: Homo sapiens, A253;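 further: growth inhibition of A253 cells, read out with a cell viability assay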
Description: SANGER: Inhibition of human A253 cell growth in a cell viability assay.

BC1 cell line = experiment: SANGER: Inhibition of human BC-1 cell growth in a cell viability assay.; assay type: functional, cell-based

C[C@@]1(C(=O)Nc2ccc(F)nc2)CCCN1c1nc(Nc2cc(C3CC3)n[nH]2)c2cccn2n1 [BMS-754807]
IC50 (Caov-3 cell line): > 2560 nM | IC50 (HMV-2 cell line): 183 nM | IC50 (KU812 cell line): > 2560 nM | IC50 (KYSE-150 cell line): 2250 nM | IC50 (KYSE-520 cell line): > 2560 nM | IC50 (KYSE-70 cell line): > 2560 nM | IC50 (LCLC-103H cell line): 788 nM | IC50 (LXF-289 cell line): > 2560 nM | IC50 (A253 cell line): > 2560 nM | IC50 (BC1 cell line): 587 nM
